Measured values published in ChEMBL document CHEMBL4043289, “Fragment-Based Drug Discovery of Inhibitors of Phosphopantetheine Adenylyltransferase from Gram-Negative Bacteria” (J Med Chem, 2018).
pIC50, pKd: −log10 of the molar value. ≈ marks a conversion by molar mass, not a printed value. Calls of active or inactive are those of the source. The rule behind the calls is not given here.

Key:
[1] = Inhibition of Escherichia coli C-terminal His-tagged PPAT expressed in Escherichia coli using 4'-phosphopantetheine as substrate preincubated for 5 mins followed by substrate and pyrophosphatase addition measured after 30 mins by malachite green reagent-based colorimetric method
[2] = test system: Escherichia coli; experiment: Binding affinity to Escherichia coli C-terminal His-tagged PPAT expressed in Escherichia coli assessed as change in melting temperature by SYPRO orange dye-based DSF method
[3] = Inhibition of Pseudomonas aeruginosa C-terminal His-tagged PPAT expressed in Escherichia coli using 4'-phosphopantetheine as substrate preincubated for 5 mins followed by substrate and pyrophosphatase addition measured after 30 mins by malachite green reagent-based colorimetric method
[4] = Solubility of the compound; type: physicochemical
[5] = Lipophilicity, log D of the compound at pH 7.4; type: physicochemical; settings: buffer
[6] = test system: Escherichia coli; experiment: Antibacterial activity against Escherichia coli ATCC 25922 after 20 hrs by broth microdilution method; type: functional
[7] = target: T1, Bifunctional coenzyme A synthase (Homo sapiens) (UniProt Q13057); experiment: Inhibition of human PPAT up to 500 uM
T1 sequence (whole entry): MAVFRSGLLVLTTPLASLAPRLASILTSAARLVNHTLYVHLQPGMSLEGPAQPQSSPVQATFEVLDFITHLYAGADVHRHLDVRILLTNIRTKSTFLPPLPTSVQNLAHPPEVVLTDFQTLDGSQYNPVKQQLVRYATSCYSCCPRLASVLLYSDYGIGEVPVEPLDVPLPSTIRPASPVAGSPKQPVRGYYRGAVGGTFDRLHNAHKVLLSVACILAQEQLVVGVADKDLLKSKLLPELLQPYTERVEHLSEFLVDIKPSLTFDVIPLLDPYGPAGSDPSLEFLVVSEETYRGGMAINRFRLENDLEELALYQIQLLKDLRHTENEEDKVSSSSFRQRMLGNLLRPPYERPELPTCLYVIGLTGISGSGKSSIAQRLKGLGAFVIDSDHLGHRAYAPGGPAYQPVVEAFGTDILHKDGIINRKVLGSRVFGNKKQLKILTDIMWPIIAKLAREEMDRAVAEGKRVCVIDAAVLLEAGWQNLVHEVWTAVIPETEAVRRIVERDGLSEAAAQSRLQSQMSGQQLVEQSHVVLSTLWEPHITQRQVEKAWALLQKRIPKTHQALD

[8] = (§1) Binding affinity to Escherichia coli PPAT by SPR method
[9] = test system: Escherichia coli; experiment: as §1
[10] = test system: Escherichia coli; experiment: Antibacterial activity against tolC deficient Escherichia coli BW25113 after 20 hrs by broth microdilution method; type: functional; settings: BW25113, 20 h
[11] = Inhibition of Staphylococcus aureus C-terminal His-tagged PPAT expressed in Escherichia coli using 4'-phosphopantetheine as substrate preincubated for 5 mins followed by substrate and pyrophosphatase addition measured after 30 mins by malachite green reagent-based colorimetric method
[12] = Dissociation rate constant to Escherichia coli PPAT by SPR method
[13] = Selectivity ratio of IC50 for human PPAT to IC50 for Escherichia coli C-terminal His-tagged PPAT
[14] = target: T2, Bifunctional coenzyme A synthase (Homo sapiens, UniProt Q13057); experiment: Inhibition of human PPAT
T2 sequence (Q13057 whole entry): T1 sequence (whole entry)

Row | Compound | pIC50 [1] | pIC50 [3] | further results
1 | CC(C)(C)Nc1ccc2nnc(C(F)(F)F)n2n1 | < 2.60 | – | ΔTm [2]: 2.5 °C
2 | Cc1cc(=O)n2nc(N[C@H](CC#N)c3cccc(Cl)c3)nc2[nH]1 | 7.43 | 7.31 | solubility [4]: > 300 µg/mL; logD [5]: 1.2; Activity [6]: inactive; inhibition [7]: inactive; pKd [8]: 8.05; Ka [9]: 23 ×10⁵ /M/s; MIC [10]: 16 µg/mL (≈ 48.7 µM); pIC50 [11]: < 3.30; koff [12]: 0.021 s⁻¹
3 | O=C(NCCCCCNC(=O)c1ccco1)c1ccco1 | 3.63 | – | ΔTm [2]: 2.9 °C
4 | Cc1cc(=O)n2nc(NC(CC(N)=O)c3cccc(Cl)c3)nc2[nH]1 (configuration not stated) | 6.35 | 6.08 | –
5 | Oc1cccc2[nH]c(C(F)(F)F)nc12 | 3.64 | < 3.30 | ΔTm [2]: 8.1 °C
6 | COCC[C@@H](Nc1nc2[nH]c(C)cc(=O)n2n1)c1cccc(Cl)c1 | 5.62 | 4.96 | –
7 | CC(=O)N1CCC[C@H]1c1nc2c(O)cccc2[nH]1 | 3.97 | 5.72 | –
8 | CNC(=O)CC(Nc1nc2[nH]c(C)cc(=O)n2n1)c1cccc(Cl)c1 (configuration not stated) | 4.82 | 5.00 | –
9 | OCc1nc2c(O)cccc2[nH]1 | 3.94 | 3.97 | –
10 | Cc1cc(N)n2nc(N[C@H](C)c3cccc(Cl)c3)nc2n1 | 6.39 | 6.42 | –
11 | COc1ccc2c(c1)C(C)(C)C1CC2CN(C(C)=O)C1 (configuration not stated) | 4.43 | – | ΔTm [2]: 5.1 °C
12 | CCc1cc(=O)n2nc(N[C@H](C)c3cccc(Cl)c3)nc2[nH]1 | 6.05 | 5.55 | –

More lines, main results first:

Row | pIC50 [1] | pIC50 [3] | Compound | further results
13 | 5.19 | – | Cc1cc(=O)n2nc(N[C@H](C)c3ccccc3)nc2[nH]1 | –
14 | 5.25 | – | Cc1cc(=O)n2nc(NCc3cccc(Br)c3)nc2[nH]1 | –
15 | 7.29 | 4.60 | O=C(O)c1cccc([C@H]2CCC[C@@H]2c2nc3c(O)cccc3[nH]2)c1 (relative stereo) | –
16 | 5.77 | 4.85 | Oc1cccc2[nH]c(COc3cccc(Cl)c3)nc12 | –
17 | 7.29 | 5.80 | Oc1cccc2[nH]c([C@H]3CCC[C@@H]3c3cccc(Cl)c3)nc12 (relative stereo) | pKd [8]: 7.42; Ka [9]: 1.96 ×10⁵ /M/s; koff [12]: 0.0071 s⁻¹
18 | 6.70 | 5.96 | Cc1cc(=O)n2nc(NC(CC(=O)O)c3cccc(Cl)c3)nc2[nH]1 (configuration not stated) | –
19 | 6.49 | 4.60 | CN1C(=O)CCC(c2nc3c(O)cccc3[nH]2)C1c1ccccc1 (configuration not stated) | –
20 | 2.97 | – | NCc1ccc2ccnc(N)c2c1 | –
21 | 5.92 | 4.82 | C[C@@H](Nc1nc2c(O)cccc2[nH]1)c1cccc(Cl)c1 | Ratio IC50 [13]: 9; pIC50 [14]: 4.96
22 | 6.00 | 4.96 | CN1C(=O)C[C@H](c2nc3c(O)cccc3[nH]2)[C@H]1c1ccccc1 (relative stereo) | –
23 | 3.58 | – | Nc1ncnc2ncn(Cc3cccc(Cl)c3)c12 | ΔTm [2]: 2.7 °C
24 | 3.56 | – | c1ccc(Cn2cnc3ncccc32)cc1 | ΔTm [2]: 2.3 °C
25 | 6.04 | 4.47 | Oc1cccc2[nH]c(C3CCCN3c3cccc(Cl)c3)nc12 (configuration not stated) | –
26 | 5.37 | – | Cc1ccc2c(ncn2Cc2cccc(Cl)c2)n1 | –
27 | 3.40 | < 3.30 | C[C@@H](Nc1ccc2[nH]cnc2n1)c1cccc(Cl)c1 | –
28 | 6.26 | 6.18 | Cc1cc(=O)n2nc(N[C@H](CO)c3cccc(Cl)c3)nc2[nH]1 | –
